How the values were obtained:
[1] = target: T1, P2RY8 (Homo sapiens, UniProt Q86VZ1, L220Y); assay: TRUPATH BRET G13 activation assay; type: cell-based; details: agonist (falling BRET ratio); HEK293T with Gα13-RLuc8, Gβ3, Gγ9-GFP2; HBSS, 20 mM HEPES
T1 construct: full length, 358 codons after start to 358; preprolactin signal + N-terminal OX56 tag (P2A-eGFP vector) for BRET; P2RY8-LgBiT fusion for beta-arrestin; MSCV-GFP vector in WEHI-231; expressed in HEK293T or WEHI-231

[2] = target: T2, P2RY8-miniGα13 in complex with Gβ1γ2 (Homo sapiens, UniProt Q86VZ1); assay: cryo-EM structure, […] Å map; type: binding; details: orthosteric pocket; active state, Gβ1γ2 bound; pH 7.5, L-MNG/GDN/CHS, 30 μM GGG
T2 construct: Expi293F TetR; complexed with human Gβ1γ2 from Hi5 cells

[3] = target: T3, P2RY8 (Homo sapiens, UniProt Q86VZ1); assay: migration inhibition of P2RY8-transduced WEHI-231 cells; type: cell-based; details: agonist; CXCL12 50 ng/mL, 37 °C, 3 h
T3 construct: full length, 358 codons after start to 358; preprolactin signal + N-terminal OX56 tag (P2A-eGFP vector) for BRET; P2RY8-LgBiT fusion for beta-arrestin; MSCV-GFP vector in WEHI-231; expressed in HEK293T or WEHI-231

| SMILES | G protein activation [1] | cryo-EM structure, 2.7 Å map [2] | fold less potency than GGG [3] |
| --- | --- | --- | --- |
| CC(C)=CCC/C(C)=C/CC/C(C)=C/CC/C(C)=C/CSC[C@H](NC(=O)CC[C@H](N)C(=O)O)C(=O)NCC(=O)O [S-geranylgeranyl-L-glutathione] | The strongly deleterious variant L220Y was unable to drive G protein activation | density consistent with GGG located in the canonical class A GPCR orthosteric ligand-binding pocket |  |
| CCCCC/C=C\C\C=C/C=C/C=C/[C@@H](SC[C@H](NC(=O)CC[C@H](N)C(=O)O)C(=O)NCC(=O)O)[C@@H](O)CCCC(=O)O [leukotriene C4] |  |  | ~ 100 fold |

Source: article PMC12648108, “Phenotypic pleiotropy of missense variants in human B cell confinement receptor P2RY8” (Cell Genomics, 2025)
